The record followed here is ChEMBL document CHEMBL4665662, “Designed P-glycoprotein inhibitors with triazol-tetrahydroisoquinoline-core increase doxorubicin-induced mortality in multidrug resistant K562/A02 cells” (Bioorg Med Chem, 2019).

Calls of active or inactive are those of the source. The calls are words filed in the database; no cut-off is given here.

In experiment [1] the test system is K562/A02. In words: Reversal of P-gp mediated multidrug resistance in human K562/A02 cells overexpressing P-gp assessed as fold reduction in doxorubicin IC50 at 5 uM after 48 hrs by MTT assay relative to control. The class given is cell-based.
The test system of experiment [2] is K562. In words: Cytotoxicity against human K562 cells assessed as cell growth inhibition after 48 hrs by MTT assay. The class given is cell-based. Particulars: K562, 48 h.
In experiment [3] the test system is K562/A02. In words: Cytotoxicity against human K562/A02 cells overexpressing P-gp assessed as cell growth inhibition after 48 hrs by MTT assay. The experiment is classed as cell-based. The conditions noted are these: K562/A02, 48 h.
For experiment [4], the system named is K562/A02. Briefly: Inhibition of P-gp overexpressed in human K562/A02 cells assessed as increase in doxorubicin accumulation at 0.1 uM preincubated for 60 mins followed by doxorubicin addition and measured after 90 mins by fluorescence spectrophotometry analysis. The class given is cell-based.
For experiment [5], the system named is K562/A02. In words: Effect on P-gp expression in human K562/A02 cells overexpressing P-gp at 0.5 to 5 uM after 72 hrs by Western blot analysis. The conditions noted are these: dose microM 0.5-5, time 72.0 hrs. The class given is functional, cell-based.
Experiment [6] has as its system K562/A02. Briefly: Reversal of P-gp mediated multidrug resistance in human K562/A02 cells overexpressing P-gp assessed as fold reduction in doxorubicin IC50 at 5 uM preincubated for 24 hrs followed by compound washout and 12 hrs later incubated with doxorubicin and measured after 48 hrs by MTT assay relative to control. The experiment is classed as cell-based.
For experiment [7], the system named is K562/A02. In words: Inhibition of P-gp overexpressed in human K562/A02 cells assessed as increase in doxorubicin accumulation preincubated for 60 mins followed by doxorubicin addition and measured after 90 mins by fluorescence spectrophotometry analysis. The class given is cell-based. The conditions noted are these: dose microM 0.5-5, time 60.0 min.
Experiment [8] relates to K562/A02. Briefly: Reversal of P-gp mediated multidrug resistance in human K562/A02 cells overexpressing P-gp assessed as inhibition of Rh123 efflux by measuring remaining mean fluorescence intensity at 2 uM pretreated with Rh123 for 60 mins followed by incubation with compound for 90 mins by FACSCalibur flow cytometry analysis. The class given is cell-based.
Experiment [9] deals with K562/A02. Briefly: Inhibition of P-gp overexpressed in human K562/A02 cells assessed as increase doxorubicin accumulation at 5 uM preincubated for 60 mins followed by doxorubicin addition and measured after 90 mins by fluorescence spectrophotometry analysis. The experiment is classed as cell-based.
In experiment [10] the test system is K562/A02. In words: Reversal of P-gp mediated multidrug resistance in human K562/A02 cells overexpressing P-gp assessed as fold reduction in doxorubicin IC50 at 5 uM preincubated for 24 hrs followed by compound washout and 24 hrs later incubated with doxorubicin and measured after 48 hrs by MTT assay relative to control. The class given is cell-based.
The nature of experiment [11]: Reversal of P-gp mediated multidrug resistance in human K562/A02 cells overexpressing P-gp assessed as potentiation of doxorubicin-induced mortality by measuring reduction in doxorubicin IC50 measured after 48 hrs by MTT assay. The class given is cell-based. The conditions noted are these: K562/A02, 48 h.
In experiment [12] the test system is K562/A02. Briefly: Reversal of P-gp mediated multidrug resistance in human K562/A02 cells overexpressing P-gp assessed as time duration of action for reversal of doxorubicin-induced cytotoxicity at 5 uM preincubated for 24 hrs followed by compound washout and later incubated with doxorubicin and measured after 48 hrs by MTT assay. The experiment is classed as cell-based.

In experiment [13] the test system is K562/A02. In words: Reversal of P-gp mediated multidrug resistance in human K562/A02 cells overexpressing P-gp assessed as fold reduction in doxorubicin IC50 at 5 uM preincubated for 24 hrs followed by compound washout and later incubated with doxorubicin and measured after 48 hrs by MTT assay relative to control. The experiment is classed as cell-based.
Experiment [14] relates to K562/A02. Briefly: Reversal of P-gp mediated multidrug resistance in human K562/A02 cells overexpressing P-gp assessed as fold reduction in doxorubicin IC50 at 5 uM preincubated for 24 hrs followed by compound washout and 6 hrs later incubated with doxorubicin and measured after 48 hrs by MTT assay relative to control. The experiment is classed as cell-based.
Experiment [15] relates to K562/A02. Briefly: Reversal of P-gp mediated multidrug resistance in human K562/A02 cells overexpressing P-gp assessed as potentiation of doxorubicin-induced mortality by measuring reduction in doxorubicin IC50 at 10 nM measured after 48 hrs by MTT assay. The experiment is classed as cell-based.

`COc1cc2c(cc1OC)CN(CCc1ccc(-n3cc(CNc4ccccc4NC(=O)c4ccco4)nn3)cc1)CC2`: in experiment [1], the Ratio IC50 amounted to 11.2. Also, the IC50 turned out to be 25.8 µM in experiment [2] (read-out: IC50) and 58.4 µM in [3].
`COc1cc2c(cc1OC)CN(CCn1cc(CNc3ccccc3NC(=O)c3ccco3)nn1)CC2`: the Ratio IC50 in [1] was 1.28. The IC50 in [3] was above 100 µM.
Turning to `COc1cc2c(cc1OC)CN(CCc1ccc(-n3cc(CNc4ccccc4NC(=O)c4ccsc4C)nn3)cc1)CC2`, the Ratio IC50 in [1] amounted to 10.9. For the same compound, the values for the IC50 in experiment [2] (read-out: IC50) and in [3] were above 100 µM and 59.6 µM, respectively.
On to `COc1cc2c(cc1OC)CN(CCc1ccc(-n3cc(CNc4ccccc4NC(=O)c4ccccn4)nn3)cc1)CC2`, for which the Ratio IC50 in [1] was 11.8. Further, the IC50 in experiment [2] (read-out: IC50) turned out to be 45.1 µM; in experiment [3] it was 52.1 µM.
Consider `COc1cc2c(cc1OC)CN(CCc1ccc(-n3cc(CNc4ccccc4NC(=O)c4cccnc4Cl)nn3)cc1)CC2`, for which, in experiment [1], the Ratio IC50 amounted to 2.79. Moreover, the IC50 in experiment [2] (read-out: IC50) stood at 42.7 µM; in experiment [3], 47 µM.
On to `COc1cc2c(cc1OC)CN(CCn1cc(CNc3ccccc3NC(=O)c3ccc(Cl)s3)nn1)CC2`, for which the Ratio IC50 in experiment [1] was 3.38. Also, the IC50 in [3] is above 100 µM.
In the case of `COc1cc2c(cc1OC)CN(CCc1ccc(-n3cc(CNc4ccccc4NC(=O)c4cc5ccccc5[nH]4)nn3)cc1)CC2`, the Ratio IC50 in [1] was found to be 6.57. Also, the half-maximal inhibitory concentration (IC50) in experiment [2] (read-out: IC50) and in experiment [3] was above 100 µM each time.
Turning to `COc1cc2c(cc1OC)CN(CCn1cc(CNc3ccccc3NC(=O)c3ccncc3)nn1)CC2`, the Ratio IC50 in experiment [1] amounted to 3.74. Moreover, the IC50 in experiment [3] was above 100 µM.
On to `COc1cc2c(cc1OC)CN(CCc1ccc(-n3cc(CNc4ccccc4NC(=O)c4ccncc4)nn3)cc1)CC2`, for which the Ratio IC50 in experiment [1] was found to be 1.09. Further, the IC50 in experiment [2] (read-out: IC50) and in experiment [3] was above 100 µM in each case.
`COc1cc2c(cc1OC)CN(CCn1cc(CNc3ccccc3NC(=O)c3cccnc3Cl)nn1)CC2`: the Ratio IC50 in experiment [1] turned out to be 1.28. Besides, in [3], the half-inhibitory concentration (IC50) is above 100 µM.
Regarding `COc1cc2c(cc1OC)CN(CCc1ccc(-n3cc(CNc4ccccc4NC(=O)c4ccc(C)s4)nn3)cc1)CC2`, in experiment [1], the Ratio IC50 was 21.8. Besides, the IC50 in experiment [2] (read-out: IC50) and in [3] was above 100 µM each time.
Consider `COc1cc2c(cc1OC)CN(CCc1ccc(-n3cc(CNc4ccccc4NC(=O)c4cnc5ccccc5c4)nn3)cc1)CC2`, for which the Ratio IC50 in [1] turned out to be 3.82. The half-inhibitory concentration (IC50) in experiment [2] (read-out: IC50) and in [3] was above 100 µM throughout.
`COc1cc2c(cc1OC)CN(CCc1ccc(-n3cc(CNc4ccccc4NC(=O)c4ccc(Cl)s4)nn3)cc1)CC2`: the inhibition result in experiment [4], in experiment [9] and in experiment [15] was “Active” each time. In [5], the result was inactive. Further, the Ratio IC50 is 3.29 in [6]; 42 in [1]; 1.27 in [10]; 17.1 in [13]; 7.08 in experiment [14]. Besides, the inhibition result in [7] was “Dose-dependent effect”. For the same compound, the Activity in experiment [8] is above 50%. In addition, the concentration giving a half-maximal response (EC50) in [11] turned out to be 0.0468 µM. For the same compound, the results for the half-maximal inhibitory concentration (IC50) in experiment [2] (read-out: IC50) and in experiment [3] were above 100 µM and 63.2 µM, respectively. The TIME in experiment [12] is above 24 h.
With `COc1cc2c(cc1OC)CN(CCn1cc(CNc3ccccc3NC(=O)c3ccc(C)s3)nn1)CC2`, the Ratio IC50 in [1] came to 2.86. Further, the IC50 in experiment [3] is above 100 µM.
Turning to `COc1cccc2c1C(=O)c1c(O)c3c(c(O)c1C2=O)C[C@@](O)(C(=O)CO)C[C@@H]3O[C@H]1C[C@H](N)[C@H](O)[C@H](C)O1` [DOXORUBICIN], in experiment [3], the half-maximal inhibitory concentration (IC50) turned out to be 55.5 µM.
With `COc1ccc(CCN(C)CCCC(C#N)(c2ccc(OC)c(OC)c2)C(C)C)cc1OC` (stereo unspecified), in [7], the inhibition result was “Dose-dependent effect”. For the same compound, the inhibition entry in experiment [9] is “Active”. Moreover, the IC50 is 68.3 µM in experiment [2] and 59.2 µM in experiment [3].
As for `COc1cc2c(cc1OC)CN(CCn1cc(CNc3ccccc3NC(=O)c3cccs3)nn1)CC2`, in [1], the Ratio IC50 is 2.03. Moreover, in [3], the IC50 was above 100 µM.
For the compound `COc1cc2c(cc1OC)CN(CCc1ccc(-n3cc(CNc4ccccc4NC(=O)c4ccsc4)nn3)cc1)CC2`, in [1], the Ratio IC50 is 22.8. Further, the values for the IC50 in experiment [2] (read-out: IC50) and in experiment [3] were above 100 µM and 65.9 µM, respectively.
As to `COc1cc2c(cc1OC)CN(CCc1ccc(-n3cc(CNc4ccccc4NC(=O)c4cccs4)nn3)cc1)CC2`, the Ratio IC50 in experiment [1] amounted to 21.2. The IC50 in experiment [2] (read-out: IC50) was above 100 µM; in experiment [3] it was 60.7 µM.
In the case of `COc1cc2c(cc1OC)CN(CCn1cc(CNc3ccccc3NC(=O)c3ccccn3)nn1)CC2`, in experiment [1], the Ratio IC50 stood at 3.88. Moreover, the IC50 in experiment [3] was above 100 µM.
Consider `COc1cc2c(cc1OC)CN(CCc1ccc(-n3cc(CNc4ccccc4NC(=O)c4ccc5ccccc5n4)nn3)cc1)CC2`, for which, in experiment [1], the Ratio IC50 was 13.3. Further, the IC50 in experiment [2] (read-out: IC50) is above 100 µM; in experiment [3] it was 58.1 µM.
As to `COc1cc2c(cc1OC)CN(CCc1ccc(NC(=O)c3cc(OC)c(OC)cc3NC(=O)c3cnc4ccccc4c3)cc1)CC2`, the Ratio IC50 came out at 4.12 in experiment [6]; 42.3 in experiment [1]; 2.4 in experiment [10]; 19.2 in [13]; 10.2 in experiment [14]. In experiment [7], the inhibition result is “Dose-dependent effect”. In addition, the figures for the IC50 in [2] (read-out: IC50) and in experiment [3] were 18.4 µM and 30.1 µM, respectively.
On to `COc1cc2c(cc1OC)CN(CCn1cc(CNc3ccccc3NC(=O)c3sccc3C)nn1)CC2`, for which the Ratio IC50 in [1] was determined as 3.09. For the same compound, in experiment [3], the concentration for half-maximal inhibition (IC50) is above 100 µM.
Consider `COc1cc2c(cc1OC)CN(CCn1cc(CNc3ccccc3NC(=O)c3ccsc3)nn1)CC2`, for which, in experiment [1], the Ratio IC50 is 2.27. In addition, the IC50 in experiment [3] is above 100 µM.
`COc1cc2c(cc1OC)CN(CCn1cc(CNc3ccccc3NC(=O)c3cc4ccccc4[nH]3)nn1)CC2`: in [1], the Ratio IC50 is 4.16. In [3], the IC50 is above 100 µM.
